In this experiment the test system is 922993-354-T-J3-PDC complex spheroid viability. The experiment is described as follows: Anticancer human tumor 922993-354-T-J3-PDC patient-derived endometrial carcinoma cell line growth inhibition [POLQ]. Particulars: for viability, T/C: stronger effect = lower value. The method, then: Multicellular complex tumor spheroid response to Polymerase (POL) inhibitors (novobiocin, ART-558, RP6685) in combination with a variety of drugs and investigational agents in selected tumor cell lines
The POL inhibitors (novobiocin, ART-558, and RP6685) were evaluated both individually and in combination with standard of care and investigational anticancer small molecules within a complex spheroid model of solid tumors. . Complex spheroids include a stromal component modeled by human endothelial cells (HUVEC) and fibroblasts modeled by human mesenchymal stem cells (MSCs). The concentration ranges selected for each drug and investigational agent were based upon clinically achievable concentrations if the clinical Cmax of the agent was known.
Compounds. The drugs and investigational agents: novobiocin (NSC847541), ART-558 (NSC835418), RP-6685 (NSC848927), peposertib (NSC802822), ceralasertib (NSC780249), elimusertib (NSC800525), camonsertib (NSC841442), AZD-1390 (NSC803789), olaparib (NSC753686), talazoparib (NSC767125), rucaparib (NSC756644), sotorasib (NSC818433), MRTX-1133 (NSC836407), SN-38 (NSC673596), topotecan (NSC609699), epotoside (NSC141540), doxorubicin (NSC123127), gemcitabine (NSC613327), 5-fluorouracil (NSC19893), paclitaxel (NSC125973), vemurafenib (NSC761431), MSA-2 (NSC828583), SN-011 (NSC837082), adavosertib (NSC754352), prexasertib (NSC758257), carboplatin (NSC241240) and oxaliplatin (NSC266046), were obtained from the National Cancer Institute (NCI) Developmental Therapeutics Program Chemical Repository (21). The FDA-approved anticancer drug set is available from the Developmental Therapeutics Program at https://dtp.cancer.gov/organization/dscb/obtaining/. […] The stock solutions were prepared in dimethyl sulfoxide (DMSO, Sigma-Aldrich, St. Louis, MO, cat. D2650), except for the platinum compounds which were prepared in saline (Quality Biological, Gaithersburg, MD, cat. 114-055-101), at 800-fold the tested concentration and stored at -70 degrees C prior to their use. All drugs and investigational agents were tested over a range starting from a high concentration at or near the clinical Cmax and decreasing in half-log increments. If the clinical Cmax for an agent had not been determined, the highest concentration tested was 10 microM, except for SN-38, which was tested at a high concentration of 1 microM.
Cell Culture. All cells were maintained in an incubator at 37 degrees C and 5% CO2 with 95% humidity. The PDC lines were cultured according to standard operating procedures established by the NCI PDMR (https://pdmr.cancer.gov). Table 3 of the manuscript, lists the cell lines along with the number of the three cell types plated to form the mct-spheroids and media for tumor cell growth. After thawing, all PDC lines, except 997537-175-T-J1-PDC and 415267-285-R-J2-PDC, were cultured in Matrigel-coated flasks prepared with a working solution of 1X Ham's F-12 nutrient mix, without supplementation (Thermo Fisher Scientific, cat. 11765054), 100 U/mL penicillin-streptomycin (Thermo Fisher Scientific, cat. 15140122), and 2.5% Matrigel (Corning Inc., Corning, NY, cat. 354248) for the first three passages. The two PDC lines 997537-175-T-J1-PDC and 415267-285-R-J2-PDC were cultured on uncoated flasks. The 857933-349-R-J2-PDC line was cultured in 6C/Colon 1B media containing advanced DMEM/F-12 (Thermo Fisher Scientific, cat. 12634028), 10 mM HEPES (Thermo Fisher Scientific, cat. 15630080), 1X GlutaMAX supplement (Thermo Fisher Scientific, cat. 35050061), 0.1 mg/mL primocin (InvivoGen, San Diego, CA, cat. ant-pm-2), 10% defined fetal bovine serum, heat inactivated (HyClone Laboratories Inc., Logan, UT, cat. SH30070.03HI), 50% L-WRN conditioned media (ATCC, cat. CRL-3276), 1.25 mM N-Acetyl-L-cysteine (Sigma-Aldrich, cat. A9165), 10 mM nicotinamide (Sigma-Aldrich, cat. N0636), 1X B-27 supplement (Thermo Fisher Scientific, cat. 17504044), 1X N-2 supplement (Thermo Fisher Scientific, cat. […]

Drawing on PubChem BioAssay AID1963830 (Molecular Pharmacology Branch, DTP, NCI, 2024), this text covers viability, T/C and IC50 for ten molecules.

Where “and” joins values, the source holds several entries; their conditions need not be identical. Equal entries are not always repeated.
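Further: spheroids exposed to the agents for one week.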
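Wherever viability, T/C is given: 100% = DMSO vehicle control wells.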

`C=CCn1c(=O)c2cnc(Nc3ccc(N4CCN(C)CC4)cc3)nc2n1-c1cccc(C(C)(C)O)n1`: the viability, T/C by setting is: (compound 0.00316 µM) 99% and 101% and 104%; (compound 0.01 µM) 102% and 97.2% and 98.6%; (compound 0.0316 µM) 88.2% and 102% and 105%; (compound 0.1 µM) 98.6% and 105% and 101%; (compound 0.316 µM) 106% and 104% and 103%; (compound 1 µM) 86.5% and 104% and 96%. Moreover, the IC50 (curve of compound) was over 1000 nM.

Turning to `CC(=O)O[C@H]1C(=O)[C@@]2(C)[C@H]([C@H](OC(=O)c3ccccc3)[C@]3(O)C[C@H](OC(=O)[C@H](O)[C@@H](NC(=O)c4ccccc4)c4ccccc4)C(C)=C1C3(C)C)[C@]1(OC(C)=O)CO[C@@H]1C[C@@H]2O`, the viability, T/C is, setting by setting: (compound 0.00949 µM) 105% and 103% and 101%; (compound 0.03 µM) 99% and 101% and 96.3%; (compound 0.0949 µM) 99.6% and 106% and 95.9%; (compound 0.3 µM) 105% (2×) and 108%; (compound 0.949 µM) 101% and 95.8% and 89.9%; (compound 3 µM) 74.1% and 74.5% and 52%. In addition, under “curve of compound”, the IC50 is over 3000 nM.

`CC1COCCN1c1cc(-c2ccnn2C)c2ccnc(-c3ccn[nH]3)c2n1` (stereo not given): the viability, T/C is 102% and 89.6% and 107% (compound 0.0316 µM); 66.9% and 60.1% and 93.3% (compound 0.1 µM); 23.1% and 29.1% and 69.8% (compound 0.316 µM); 11.8% and 12.8% and 36.8% (compound 1 µM); 9.13% and 7.87% and 19.7% (compound 3.16 µM); 10.8% and 9.87% and 13.7% (compound 10 µM). In addition, for the setting “curve of compound”, the IC50 is 156 nM and 146 nM and 630 nM.

For the molecule `CC1COCCN1c1cc(C2(S(C)(=N)=O)CC2)nc(-c2ccnc3[nH]ccc23)n1` (stereo not given), the viability, T/C was 98.8% and 101% and 94% (compound 0.0316 µM); 94.9% and 100% and 90.1% (compound 0.1 µM); 91.1% and 101% (2×) (compound 0.316 µM); 97% and 102% and 99.8% (compound 1 µM); 93.2% and 104% and 78.1% (compound 3.16 µM); 46.8% and 92.4% and 45% (compound 10 µM). In addition, the IC50 (curve of compound) is 9230 nM and > 10000 nM and 8400 nM.

As to `CCCS(=O)(=O)Nc1ccc(F)c(C(=O)c2c[nH]c3ncc(-c4ccc(Cl)cc4)cc23)c1F`, the viability, T/C by setting is: (compound 0.0316 µM) 101% and 107% and 102%; (compound 0.1 µM) 102% and 103% and 98.4%; (compound 0.316 µM) 105% and 106% and 94.1%; (compound 1 µM) 104% and 107% and 109%; (compound 3.16 µM) 97.1% and 103% and 105%; (compound 10 µM) 98.9% and 92.4% and 69.4%. Under “curve of compound”, the IC50 is over 10000 nM.

Turning to `CC[C@@]1(O)C(=O)OCc2c1cc1n(c2=O)Cc2cc3c(CN(C)C)c(O)ccc3nc2-1`, the viability, T/C (compound 0.000316 µM) is 92.2% and 105% and 98.3%; the viability, T/C (compound 0.001 µM) was 103% and 105% and 84%; the viability, T/C (compound 0.00316 µM) is 101% and 97.8% and 99.3%; the viability, T/C (compound 0.01 µM) is 98.3% and 98.7% and 106%; the viability, T/C (compound 0.0316 µM) was 86.9% and 98% and 91.8%; the viability, T/C (compound 0.1 µM) was 54.7% and 87.9% and 41.4%. Besides, the IC50 (curve of compound) was > 100 nM and 82.7 nM.

On to `CCc1c2c(nc3ccc(O)cc13)-c1cc3c(c(=O)n1C2)COC(=O)[C@]3(O)CC`, for which the viability, T/C was 78.9% and 100% and 95.3% (compound 0.00316 µM); 51.6% and 79.5% and 29.8% (compound 0.01 µM); 13% and 39.8% and 14.1% (compound 0.0316 µM); 12.4% and 20.3% and 11.5% (compound 0.1 µM); 15.2% and 19.6% and 12.8% (compound 0.316 µM); 16.6% and 28.6% and 14.5% (compound 1 µM). The IC50 (curve of compound) is 10.5 nM and 23 nM and 7.03 nM.

`CNCc1ccc(-c2[nH]c3cc(F)cc4c3c2CCNC4=O)cc1`: the viability, T/C (compound 0.0316 µM) is 94.6% and 105% and 109%; the viability, T/C (compound 0.1 µM) is 96.8% and 100% and 90.3%; the viability, T/C (compound 0.316 µM) was 93.7% and 96% and 96.1%; the viability, T/C (compound 1 µM) was 105% and 97.1% and 96%; the viability, T/C (compound 3.16 µM) was 85.2% and 99.3% and 90.9%; the viability, T/C (compound 10 µM) was 86.2% and 96.2% and 71.4%. Besides, the IC50 (curve of compound) was over 10000 nM.

On to `COC1C(OC(N)=O)C(O)C(Oc2ccc3c(O)c(NC(=O)c4ccc(O)c(CC=C(C)C)c4)c(=O)oc3c2C)OC1(C)C` (stereo not given), for which the viability, T/C is, setting by setting: (compound 0.0316 µM) 100% [middle of 13 runs]; (compound 0.1 µM) 102% [middle of 13 runs]; (compound 0.316 µM) 98.2% [middle of 13 runs]; (compound 1 µM) 101% [middle of 13 runs]; (compound 3.16 µM) 97.6% [middle of 13 runs]; (compound 10 µM) 93.8% [middle of 13 runs]. Besides, the half-maximal inhibitory concentration (IC50) (compound alone, run of 10/31/2023) was over 10000 nM.

With `COc1cc(C2c3cc4c(cc3C(OC3OC5COC(C)OC5C(O)C3O)C3COC(=O)C23)OCO4)cc(OC)c1O` (stereo not given), the viability, T/C reads like this: (compound 0.0316 µM) 90.2% and 98.8% and 103%; (compound 0.1 µM) 95.9% and 102% and 93.7%; (compound 0.316 µM) 85.3% and 104% and 92.5%; (compound 1 µM) 97.9% and 104% and 97.5%; (compound 3.16 µM) 84.4% and 99.5% and 83.6%; (compound 10 µM) 42.3% and 81.9% and 37%. For the same molecule, the IC50 (curve of compound) is 8150 nM and > 10000 nM and 7300 nM.

The term viability, T/C denotes the result in the treated group divided by that in the control group, in per cent. By IC50 is commonly meant the concentration that inhibits the measured activity by half.
